Reference: patent US6884601B1, “Method to detect fertilization potential of sperm” (priority 1999, dated 2005)

Molecular target: T1, phospholipid hydroperoxide glutathione peroxidase (PHGPx) (Rattus norvegicus, UniProt P36970)
T1 construct: from tissue; host or cells: Wistar rat: cells from seminiferous tubules of the testis, epididymal spermatozoa, sperm mitochondrial capsule
T1 sequence (P36970 3-170 isoform P36970-2 limits assumed): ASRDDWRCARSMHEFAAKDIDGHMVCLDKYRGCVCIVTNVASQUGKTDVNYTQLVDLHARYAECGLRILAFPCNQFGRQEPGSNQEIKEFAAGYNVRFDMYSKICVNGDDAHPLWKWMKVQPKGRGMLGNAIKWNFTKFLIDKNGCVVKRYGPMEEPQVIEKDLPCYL
Assay: PHGPx activity after solubilisation/reduction with thiols (phosphatidylcholine hydroperoxide substrate)
Type: biochemical
Conditions: for PHGPx activity: 6M guanidine-HCl, pH 7.5, 4° C., 10 min
Procedure: In fact, the specific activities thus obtained from mitochondrial capsules exceed, by a factor of 20, the highest values ever measured, i.e. in spermatogenic cells. Nevertheless, this extreme PHGPx activity is still low compared to its content in PHGPx protein.
Spermatozoa of four month old Wistar rats (about 300 grams of body weight) were collected by squeezing cauda epididymis and vas deferens in phosphate buffer saline (PBS) and by centrifugating at 600×g for 10 minutes. Cell and sperm pellets were layered on a discontinous 45%, 70% and 95% Percoll gradient and centrifugated at 300×g for 20 min. Spermatogenic cells stacked on top of the gradient, while spermatozoa separated into the 70% Percoll layer. Cells from seminiferous epithelium were prepared as follows (26): testes were deprived of albuginea, seminiferous tubules were cut into small pieces in PBS containing 0.250 mg/ml collagenase, and incubated twice 25° C. for 15 min. Cells then were filtered through a stainless steel screen (140 μm pore), washed in PBS and centrifugated at 300×g for 10 min. Sperm mitochondrial capsule was prepared according to Calvin et al. (1): sperms were resuspended in 0.05 M Tris-HCl pH 8.0 at the concentration of 10^6 cells/ml and treated with trypsin (0.2 mg/ml) for 10 minutes. After stopping the protease action with trypsin inhibitor (0.5 mg/ml) and SDS (10 mg/ml) sperms were centrifugated at 1,500×g for 10 minutes. Pellets were resuspended in 0.05 M Tris-HCl, pH 8.5 containing 1% sodium dodecyl sulphate (SDS), and 0.2 mM DTT and kept under continuous stirring for 30 minutes. Following centrifugation at 4,500×g for 15 min, the resulting supernatant was layered on a 1.6 M sucrose cushion. After centrifugation for 20 min at 18,000×g in a swinging rotor, sperm capsules were collected as a band at the top of the sucrose cushion, washed in Tris-HCl, pH 8.0 and spun at 140,000×g.
When applicable, PHGPx was also identified by activity measurement according to (28) using the specific substrate phosphatidylcholine hydroperoxide.

[1] = 0.1 M thiol in the presence of guanidine, measured after elimination of denaturating and reducing agents

O[C@H](CS)[C@H](O)CS (racemic) [dithiothreitol]
Reactivation of latent PHGPx of sperm mitochondrial capsule / mature spermatozoa [1]: regenerate a significant PHGPx activity

OCCS [2-mercaptoethanol]
Reactivation of latent PHGPx of sperm mitochondrial capsule / mature spermatozoa [1]: regenerate a significant PHGPx activity | PHGPx activity (Cells from seminiferous tubules, 5 mM 2-mercaptoethanol, mean and S.D. of five): 250 ± 10 mU/mg protein | PHGPx activity (Cells from seminiferous tubules, 100 mM 2-mercaptoethanol, mean and S.D. of five): 260 ± 10 mU/mg protein | PHGPx activity (Mitochondrial capsule, 5 mM 2-mercaptoethanol): undetectable | PHGPx activity (Mitochondrial capsule, 100 mM 2-mercaptoethanol, mean and S.D. of five): 5,600 ± 290 mU/mg protein | PHGPx activity (Spermatozoa from tail of epididymis, 5 mM 2-mercaptoethanol): undetectable | PHGPx activity (Spermatozoa from tail of epididymis, 100 mM 2-mercaptoethanol, mean and S.D. of five): 3,140 ± 200 mU/mg protein

N[C@@H](CCC(=O)N[C@@H](CS)C(=O)NCC(=O)O)C(=O)O [glutathione]
Reactivation of latent PHGPx of sperm mitochondrial capsule / mature spermatozoa (glutathione in the low millimolar range, conventional test conditions): neither reactivated
